Test: Solubility of compound of formula (I) in flavor solvents (Crystalline PV instrument, temperature solubility curve)
Assay type: physicochemical
Conditions: 22° C.
Description: A precise amount of the powder was weighed into a transparent 8 mL tube, 3 g of solvent was added, and the tube was sealed with a cap equipped with an integrated overhead stirrer. The tube was immediately transferred to a Crystalline PV instrument (Technobis Crystallization Systems, The Netherlands), and placed into a precooled reactor at 3° C. The sample was heated and stirred in the reactor at a rate of 0.1° C./min up to 60° C. Each reactor of the Crystalline PV instrument is equipped with an LED sensor and a digital camera, and data is acquired as real-time transmittance to detect turbidity or as video images for visualization. The solubility temperature is reached when all particles have dissolved. In order to establish a temperature solubility curve, at least 4 samples with different concentrations are measured. The data are fitted to an exponential curve according to the model of Hoffmann, and solubility as a function of temperature can be calculated by extrapolation. Under this method, the solubility of N-(1H-pyrazol-3-yl)-N-(thiophen-2-ylmethyl)-2-(p-tolyloxy)acetamide in different solvents, which could be used in flavor application, was measured.

SMILES | Solubility (in Ethyl lactate) [%] | Solubility (in Augeo Clean Multi) [%] | Solubility (in Dowanol TPM) [%] | Solubility (in Ethanol abs.) [%] | Solubility (in Mint piperita) [%] | Solubility (in PG) [%] | Solubility (in triacetin) [%] | Solubility (in triethyl citrate) [%]
CCc1ccc(OCC(=O)N(Cc2cccs2)c2cc[nH]n2)cc1 [2-(4-ethylphenoxy)-N-(1H-pyrazol-3-yl)-N-(thiophen-2-ylmethyl)acetamide] | 26.1 | – | – | – | – | – | – | –
Cc1ccc(OCC(=O)N(Cc2cccs2)c2ccn[nH]2)cc1 [N-(1H-pyrazol-3-yl)-N-(thiophen-2-ylmethyl)-2-(p-tolyloxy)acetamide] | 8.6 | 5.7 | 5.4 | 3.3 | 2.1 | 0.4 | 1.2 | 3.1
